Data on 1 compound can be found in patent US20140243332A1, “METHODS OF TREATING CANCERS CHARACTERIZED BY ABERRENT ROS1 ACTIVITY” (Oregon Health & Science University, priority 2013, published 2014).

The target of assay [1] is FIG-ROS (Homo sapiens, UniProt P08922). The assay can be described thus: Immunoblot of NIH3T3 FIG-ROS lysates. Also on record: expressed in transfected cells; host or cells: Ba/F3 (A14) and NIH3T3 (A24), retroviral pMSCV-IRES-GFP; the other entry of the earlier key: GOPC (Q9HD26, Golgi-associated PDZ and coiled-coil motif-containing protein). Particulars: NIH3T3 FIG-ROS cells, 1 hour, at lower doses than crizotinib. It is filed as cell-based. As to the method:
(§1) The parental Ba/F3 cell line was cultured in RPMI 1640 medium with 10% FBS, L-glutamine, penicillin/streptomycin and 15% WEHI-conditioned media. Ba/F3 cell lines were maintained at densities of 0.5×10^6 to 1.5×10^6 per ml of media. FIG-ROS and SLC-ROS Ba/F3 lines were created by infecting the parental Ba/F3 with retrovirus expressing either human FIG-ROS-S (indicated FIG-ROS herein) or SLC-ROS-S (indicated SLC-ROS herein). Stable transfectant lines were sorted for GFP expression on a FACS Aria® flow cytometer. Cells were counted daily using Guava ViaCount® reagent and Guava Personal Cell Analysis® flow cytometer. […] Early passage NIH3T3 cells were infected with retrovirus expressing either FIG-ROS or SLC-ROS and sorted for GFP expression as described above for Ba/F3 cells. HCC78 cells were cultured in RPMI 1640 medium with 10% FBS, L-glutamine, and penicillin/streptomycin. This media is referred to as RPMI-10% FBS herein.

The subject of assay [2] is HCC4011 cells. The assay can be described thus: Cell viability assay, HCC4011. The class given is cell-based, human. Conditions: HCC4011 cells (activated EGFR), FIG. 6B. As to the method:
IC50 was determined from non-linear regression curve fit analysis of the dose response curves.

Assay [3] concerns the target Ba/F3 FIG-ROS E1935G cells (Homo sapiens, UniProt P08922, E1935G, cells depend on it). Put plainly: Cell viability assay, Ba/F3 FIG-ROS E1935G. It is filed as cell-based. Conditions: Table 3, Ba/F3 FIG-ROS E1935G; nM; read-out: IC50 (the source's name). As to the method: (§2) Cell lines were distributed in 96-well plates and incubated with the indicated concentrations of inhibitor for 72 hours. […] Ba/F3 cell lines were plated at 4×10^3 cells/well. HCC78 and mCC cell lines were plated at 1.5×10^3 cells/well. All cell types were seeded in a final volume of 80 microliters. A 20 microliter volume of five-fold concentrated inhibitor media was added. Cell proliferation was measured using a […] viability assay (CellTiter96 Aqueous One® Solution; Promega). A BioTek Synergy 2® plate reader was used to read the absorbance at 490 nm at 30 minutes and 1 hour after addition of MTS. To facilitate comparison between experiments, the raw MTS absorbance of vehicle (0.1% DMSO) treated cells was set to 1 and absorbance from inhibitor treated wells was normalized to the vehicle treated value. […] Data were normalized using Microsoft Excel® and further non-linear regression curve fit analysis of the normalized data for determination of IC50 was performed using Graphpad Prism® software.
(§3) The FIG-ROS-S fusion gene was synthesized using the GeneArt® service. FIG-ROS-S is denoted as FIG-ROS herein.

Assay [4] concerns the target Ba/F3 ALK F1174L cells (Homo sapiens, UniProt Q9UM73, F1174L, cells depend on it). Put plainly: Cell viability (MTS) assay, Ba/F3 ALK F1174L. The class given is cell-based. Particulars: 72 hours, read-out: IC50 (the source's name).
In assay [5] the target is T1, Ba/F3 SLC-ROS cells (Homo sapiens, UniProt P08922).
T1 construct: SLC-ROS-S (SLC-ROS) was cloned from cDNA made from HCC78 cells; fused on or other part: GFP is co-expressed from an IRES in pMIG and is not fused; O95436 (Sodium-dependent phosphate transport protein 2B)
The assay can be described thus: Apoptosis induction (Annexin V / 7-AAD), Ba/F3 SLC-ROS. It is filed as cell-based. Conditions: 15 nM, 48 hours. As to the method:
FIG. 5A is a set of three bar graphs depicting the induction of apoptosis in Ba/F3 FIG-ROS, Ba/F3 SLC-ROS and Ba/F3 ALK F1174L cells after 48 hours of treatment with the indicated doses of the indicated compounds. The number of cells that were Annexin V and 7-AAD positive after inhibitor treatment was normalized to number of cells staining positive with these markers with vehicle treatment (basal). A minimum of 2000 cells were counted per condition. Rate of apoptosis is shown as fold over basal. Basal apoptosis in Ba/F3 FIG-ROS, Ba/F3 SLC-ROS and Ba/F3 ALK F1174 cells was 3.6%, 2.8% and 1.2% respectively.

Assay [6] has as its target Ba/F3 FIG-ROS G1971E cells (Homo sapiens, UniProt P08922, G1971E, cells depend on it). The assay can be described thus: Cell viability assay, Ba/F3 FIG-ROS G1971E. The class given is cell-based. Particulars: Table 3, Ba/F3 FIG-ROS G1971E; nM; read-out: IC50 (the source's name). As to the method:
as §2, §3

Assay [7] deals with HCC78 cells. The assay can be described thus: HCC78 cell migration (scratch gap closure). The class given is cell-based, human. Conditions: 50 nM, 18 hours, FIG. 6A. As to the method: FIG. 6A is a set of six images on the left and a bar graph on the right. The images at left are of a gap at 10 minutes and at 18 hours after ‘scratch’ of cells on a surface. […] The right panel is a bar graph depicting the percent of gap closure determined by measuring the length of a straight line drawn across the gap from imaging the same field of view at initiation of treatment and at 18 hours. Scale bar=200 μm

Assay [8] concerns FIG-ROS tumors. The assay can be described thus: In vivo treatment of mice bearing subcutaneous FIG-ROS cholangiocarcinoma tumors. Conditions: 25 mg/kg oral gavage once daily, 9 days, immunodeficient mice; foretinib p<0.0001 for Lines 4 and 6.
Protocol: Mouse chorangiocarcinoma cell lines expressing either FIG-ROS or shPten were subcutaneously injected into 11 week old female immune-deficient mice. […] Caliper measurements were taken at the time of treatment initiation and 24 hrs after administration of the last dose. Data in waterfall plots is calculated as follows: ((tumor volume Tend/tumor volume T0)−1). Caliper measurements of tumors were taken at T0 and Tend. Tumor volume is calculated as: 0.5*L*Ŵ2(L>W).
Tumors were formed by subcutaneous injection of the murine cholangiocarcinoma cell lines described above in the flanks of immunodeficient mice. […] Caliper measurements were taken at the time of treatment initiation (Ti) and 24 h after administration of the last dose (Tend).
In assay [9] the test system is HCC78 cells. The assay can be described thus: Cell viability (MTS) assay, HCC78. Particulars: Homo sapiens, 72 hour exposure, read-out: IC50 HCC78 cell growth. The class given is cell-based, human. As to the method:
as §1

Assay [10] deals with NIH3T3 SLC-ROS cells. The assay can be described thus: Soft agar colony formation, NIH3T3 SLC-ROS. The class given is cell-based. Particulars: at lower doses than crizotinib. An excerpt: The bottom panels are bar graphs indicating the number of colonies formed from the plates depicted in the top panels. The values indicate average colony number±SEM from 4 independent wells.

The target of assay [11] is SLC-ROS (Homo sapiens, UniProt P08922). The assay can be described thus: Immunoblot of NIH3T3 SLC-ROS lysates. Conditions: NIH3T3 SLC-ROS cells, 1 hour, at lower doses than crizotinib. It is filed as cell-based. More on the design: SLC34A2 N-terminal portion, fusion partner; expressed in transfected cells; host or cells: Ba/F3 (A15) and NIH3T3 (A25), retroviral pMIG; the other entry of the earlier key: SLC34A2 (O95436, Sodium-dependent phosphate transport protein 2B). As to the method: as §1
A general note: A western blot detects proteins with antibodies after separation by electrophoresis.

As a reminder, the IC50 is the concentration that inhibits the measured activity by half. For the compound `COc1cc2c(Oc3ccc(NC(=O)C4(C(=O)Nc5ccc(F)cc5)CC4)cc3F)ccnc2cc1OCCCN1CCOCC1` [foretinib, N1′-[3-fluoro-4-[[6-methoxy-7-(3-morpholinopropoxy)-4-quinolyl]oxy]phenyl]-N1-(4-fluorophenyl)cyclopropane-1,1-dicarboxamide], the FIG-ROS phosphorylation result in assay [1] is “strongly suppressed”. In assay [2], the “sensitivity of cell growth” value was “relatively insensitive”. The GI50 was 6.6 nM in [3], 1800 nM in assay [4] and 8.69 nM in assay [6]. The apoptosis induction entry in assay [5] is on record as “induced apoptosis”. Also, the HCC78 cell migration result in assay [7] was “more potently inhibited by foretinib than crizotinib”. Besides, the FIG-ROS tumor volume result in [8] was “dramatically and significantly reduced”. Besides, the IC50 in assay [9] is 425 nM. In assay [10], the anchorage-independent colony formation result is recorded as “strongly suppressed”. Further, the SLC-ROS phosphorylation entry in assay [11] was “strongly suppressed”.
